Laboratory results reported in PubChem BioAssay (NCI).
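The compound was tested at five concentrations on cells cultured in 96-well plates, with a 48-hour exposure period. GI50 = concentration required for 50% inhibition of growth. TGI denotes the concentration required for complete inhibition of growth.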

Assays:
Experiment in all cases: NCI anticancer screen, dose series, 48 h
786-0 renal = test system: 786-0 renal
A498 renal = test system: A498 renal
A549 NSCLC = test system: A549 NSCLC
ACHN renal = test system: ACHN renal
BT-549 breast = test system: BT-549 breast
CAKI-1 renal = test system: CAKI-1 renal
CCRF-CEM leukemia = test system: CCRF-CEM leukemia
COLO 205 colon = test system: COLO 205 colon
DU-145 prostate = test system: DU-145 prostate
EKVX NSCLC = test system: EKVX NSCLC
HCC-2998 colon = test system: HCC-2998 colon
HCT-116 colon = test system: HCT-116 colon
HCT-15 colon = test system: HCT-15 colon
HL-60(TB) leukemia = test system: HL-60(TB) leukemia
HOP-62 NSCLC = test system: HOP-62 NSCLC
HOP-92 NSCLC = test system: HOP-92 NSCLC
HS 578T breast = test system: HS 578T breast
HT29 colon = test system: HT29 colon
IGROV1 ovarian = test system: IGROV1 ovarian
K-562 leukemia = test system: K-562 leukemia
KM12 colon = test system: KM12 colon
LOX IMVI melanoma = test system: LOX IMVI melanoma
M14 melanoma = test system: M14 melanoma
MALME-3M melanoma = test system: MALME-3M melanoma
MDA-MB-231 breast = test system: MDA-MB-231 breast
MDA-MB-435 = test system: MDA-MB-435
MDA-MB-468 breast = test system: MDA-MB-468 breast
MOLT-4 leukemia = test system: MOLT-4 leukemia
NCI-H226 lung = test system: NCI-H226 lung
NCI-H23 lung = test system: NCI-H23 lung
NCI-H460 lung = test system: NCI-H460 lung
NCI-H522 lung = test system: NCI-H522 lung
NCI/ADR-RES ovarian = test system: NCI/ADR-RES ovarian
OVCAR-3 ovarian = test system: OVCAR-3 ovarian
OVCAR-4 ovarian = test system: OVCAR-4 ovarian
OVCAR-5 ovarian = test system: OVCAR-5 ovarian
OVCAR-8 ovarian = test system: OVCAR-8 ovarian
PC-3 prostate = test system: PC-3 prostate
RPMI-8226 leukemia = test system: RPMI-8226 leukemia
RXF 393 renal = test system: RXF 393 renal
SF-268 CNS = test system: SF-268 CNS
SF-295 CNS = test system: SF-295 CNS
SF-539 CNS = test system: SF-539 CNS
SK-MEL-2 melanoma = test system: SK-MEL-2 melanoma
SK-MEL-28 melanoma = test system: SK-MEL-28 melanoma
SK-MEL-5 melanoma = test system: SK-MEL-5 melanoma
SK-OV-3 ovarian = test system: SK-OV-3 ovarian
SN12C renal = test system: SN12C renal
SNB-19 CNS = test system: SNB-19 CNS
SNB-75 CNS = test system: SNB-75 CNS
SR leukemia = test system: SR leukemia
SW-620 colon = test system: SW-620 colon
T-47D breast = test system: T-47D breast
TK-10 renal = test system: TK-10 renal
U251 CNS = test system: U251 CNS
UACC-257 melanoma = test system: UACC-257 melanoma
UACC-62 melanoma = test system: UACC-62 melanoma
UO-31 renal = test system: UO-31 renal

COc1cc2c3c(n(CCCN4CCOCC4)c(=O)c2cc1OC)-c1nc2c(cc1C3=O)OCO2
GI50 (786-0 renal): 593 nM | TGI (786-0 renal): 29.4 µM | GI50 (A498 renal): > 69.2 µM | TGI (A498 renal): > 100 µM | GI50 (A549 NSCLC): 3.43 µM | TGI (A549 NSCLC): > 100 µM | GI50 (ACHN renal): 150 nM | TGI (ACHN renal): > 100 µM | GI50 (BT-549 breast): 619 nM | TGI (BT-549 breast): 8.43 µM | GI50 (CAKI-1 renal): 159 nM | TGI (CAKI-1 renal): > 100 µM | GI50 (CCRF-CEM leukemia): 35.1 nM | TGI (CCRF-CEM leukemia): 1720 nM | GI50 (COLO 205 colon): 1360 nM | TGI (COLO 205 colon): > 100 µM | GI50 (DU-145 prostate): 418 nM | TGI (DU-145 prostate): > 100 µM | GI50 (EKVX NSCLC): 1970 nM | TGI (EKVX NSCLC): > 100 µM | GI50 (HCC-2998 colon): 1860 nM | TGI (HCC-2998 colon): > 100 µM | GI50 (HCT-116 colon): 416 nM | TGI (HCT-116 colon): > 100 µM | GI50 (HCT-15 colon): 1240 nM | TGI (HCT-15 colon): > 100 µM | GI50 (HL-60(TB) leukemia): 1250 nM | TGI (HL-60(TB) leukemia): > 100 µM | GI50 (HOP-62 NSCLC): 51 nM | TGI (HOP-62 NSCLC): 748 nM | GI50 (HOP-92 NSCLC): 2870 nM | TGI (HOP-92 NSCLC): > 100 µM | GI50 (HS 578T breast): 25.3 µM | TGI (HS 578T breast): > 100 µM | GI50 (HT29 colon): 442 nM | TGI (HT29 colon): 11.6 µM | GI50 (IGROV1 ovarian): > 100 µM | TGI (IGROV1 ovarian): > 100 µM | GI50 (K-562 leukemia): 177 nM | TGI (K-562 leukemia): > 82.9 µM | GI50 (KM12 colon): > 53.9 µM | TGI (KM12 colon): > 100 µM | GI50 (LOX IMVI melanoma): 170 nM | TGI (LOX IMVI melanoma): 1470 nM | GI50 (M14 melanoma): 250 nM | TGI (M14 melanoma): > 100 µM | GI50 (MALME-3M melanoma): 1750 nM | TGI (MALME-3M melanoma): > 100 µM | GI50 (MDA-MB-231 breast): 2380 nM | TGI (MDA-MB-231 breast): 5.62 µM | GI50 (MDA-MB-435): 828 nM | TGI (MDA-MB-435): > 100 µM | GI50 (MDA-MB-468 breast): 130 nM | TGI (MDA-MB-468 breast): 0.51 µM | GI50 (MOLT-4 leukemia): 58.1 nM | TGI (MOLT-4 leukemia): 16 µM | GI50 (NCI-H226 lung): 495 nM | TGI (NCI-H226 lung): > 33 µM | GI50 (NCI-H23 lung): 185 nM | TGI (NCI-H23 lung): 1520 nM | GI50 (NCI-H460 lung): 77.2 nM | TGI (NCI-H460 lung): 2350 nM | GI50 (NCI-H522 lung): 277 nM | TGI (NCI-H522 lung): 15.7 µM | GI50 (NCI/ADR-RES ovarian): 327 nM | TGI (NCI/ADR-RES ovarian): 3.68 µM | GI50 (OVCAR-3 ovarian): 4.61 µM | TGI (OVCAR-3 ovarian): > 100 µM | GI50 (OVCAR-4 ovarian): > 100 µM | TGI (OVCAR-4 ovarian): > 100 µM | GI50 (OVCAR-5 ovarian): 4.91 µM | TGI (OVCAR-5 ovarian): > 100 µM | GI50 (OVCAR-8 ovarian): 2920 nM | TGI (OVCAR-8 ovarian): > 100 µM | GI50 (PC-3 prostate): 2090 nM | TGI (PC-3 prostate): > 100 µM | GI50 (RPMI-8226 leukemia): 341 nM | TGI (RPMI-8226 leukemia): > 56.4 µM | GI50 (RXF 393 renal): 1200 nM | GI50 (SF-268 CNS): 892 nM | TGI (SF-268 CNS): > 100 µM | GI50 (SF-295 CNS): 55.6 nM | TGI (SF-295 CNS): 1700 nM | GI50 (SF-539 CNS): 226 nM | TGI (SF-539 CNS): 1330 nM | GI50 (SK-MEL-2 melanoma): > 100 µM | TGI (SK-MEL-2 melanoma): > 100 µM | GI50 (SK-MEL-28 melanoma): > 52 µM | TGI (SK-MEL-28 melanoma): > 100 µM | GI50 (SK-MEL-5 melanoma): 180 nM | TGI (SK-MEL-5 melanoma): 610 nM | GI50 (SK-OV-3 ovarian): 217 nM | TGI (SK-OV-3 ovarian): 4 µM | GI50 (SN12C renal): 2720 nM | TGI (SN12C renal): > 100 µM | GI50 (SNB-19 CNS): 271 nM | TGI (SNB-19 CNS): > 100 µM | GI50 (SNB-75 CNS): 254 nM | TGI (SNB-75 CNS): > 64.5 µM | GI50 (SR leukemia): 60.6 nM | TGI (SR leukemia): > 49 µM | GI50 (SW-620 colon): 477 nM | TGI (SW-620 colon): > 100 µM | GI50 (T-47D breast): 185 nM | TGI (T-47D breast): > 100 µM | GI50 (TK-10 renal): > 100 µM | TGI (TK-10 renal): > 100 µM | GI50 (U251 CNS): 109 nM | TGI (U251 CNS): 3.78 µM | TGI (UACC-257 melanoma): > 100 µM | GI50 (UACC-62 melanoma): 117 nM | TGI (UACC-62 melanoma): > 100 µM | GI50 (UO-31 renal): 499 nM | TGI (UO-31 renal): > 100 µM

CN1CCc2c(c3ccccc3c3ccccc23)C1
GI50 (MDA-MB-468 breast): 2220 nM | TGI (MDA-MB-468 breast): 9.94 µM

COc1cc(NCCCCCN=C(N)N)c2ncccc2c1
GI50 (MDA-MB-468 breast): 78 nM | TGI (MDA-MB-468 breast): 0.344 µM

O=C1Nc2cc(Cl)ccc2/C1=C\c1c(-c2ccc(F)cc2)nc2ccccn12
GI50 (MDA-MB-468 breast): 448 nM | TGI (MDA-MB-468 breast): 2.25 µM

O=C1C=CC(=O)N1C1CCCCCCCCCCC1
GI50 (MDA-MB-468 breast): 2210 nM | TGI (MDA-MB-468 breast): 6.8 µM

CCCS(=O)(=O)Nc1ccc(F)c(C(=O)c2c[nH]c3ncc(Cl)cc23)c1F
GI50 (MDA-MB-468 breast): 7640 nM | TGI (MDA-MB-468 breast): 49.5 µM

O=C(/C=C/c1ccc(Cl)cc1)/C=C/c1cc2ccccc2[nH]c1=O
GI50 (MDA-MB-468 breast): 2350 nM | TGI (MDA-MB-468 breast): 6.01 µM

Nc1nc2c(c3ncccc13)C(c1cccc(Br)c1)Cc1ncccc1-2 (configuration not stated)
GI50 (MDA-MB-468 breast): 349 nM | TGI (MDA-MB-468 breast): 7.66 µM

O=C(N/N=C/c1ccccc1O)c1ccccc1O
GI50 (MDA-MB-468 breast): 427 nM | TGI (MDA-MB-468 breast): 5.56 µM

COc1ccc(C(=O)c2cc(OC)c3c(c2)OCO3)cc1O
GI50 (MDA-MB-468 breast): 366 nM | TGI (MDA-MB-468 breast): 3.35 µM
